This passage reports melting point results from patent publication US8378102B2, “Oxime and hydroxylamine substituted thiazolo[4,5-c] ring compounds and methods” (3M Innovative Properties Company, priority 2005, dated 2013).

Structures are written as SMILES.

In general, melting point refers to the temperature, or range, at which the solid turns liquid. The compound `CC(C)=NOCc1nc2c(N)nc3cc(Br)ccc3c2s1` [Example 2, Acetone O-(4-amino-7-bromo[1,3]thiazolo[4,5-c]quinolin-2-ylmethyl)oxime] had a melting point of 211 to 213 °C.

In turn, `CON=Cc1nc2c(N)nc3cc(-c4cccc(NS(C)(=O)=O)c4)ccc3c2s1` [Example 139, N-{3-[4-Amino-2-(methoxyimino-methyl)-thiazolo[4,5-c]quinolin-7-yl]-phenyl}-methanesulfonamide] yielded a melting point of 254 to 256 °C.

`CC(C)=NOCc1nc2c(N)nc3ccccc3c2s1` [Example 1, Acetone O-[(4-amino[1,3]thiazolo[4,5-c]quinolin-2-yl)methyl]oxime]: the melting point was in the range of 152 to 153 °C.

Compound `CON=Cc1nc2c(N)nc3cc(Br)ccc3c2s1` [Example 3, 4-Amino-7-bromo[1,3]thiazolo[4,5-c]quinoline-2-carbaldehyde O-methyloxime] returned a melting point of 262 to 264 °C.

For `CON=Cc1nc2c(N)nc3cc(-c4ccccc4)ccc3c2s1` [Example 138, 4-Amino-7-phenyl-thiazolo[4,5-c]quinoline-2-carbaldehyde O-methyl-oxime], the melting point was in the range of 259 to 261 °C.
